How the values were obtained:
[1] = Cellular toxicity counterscreen (CC50); type: cell-based; details: human, HuH-7 hepatoma cells
Method: The compounds of the present invention were also evaluated for cellular toxicity and anti-viral specificity in the counterscreens described below.

[2] = system: subgenomic HCV Replicon in hepatoma (HuH-7) cells; test: Assay for inhibition of HCV RNA replication (replicon, in situ ribonuclease protection SPA); type: cell-based; details: Hepatitis C virus, HuH-7 replicon cells, activity ranges
Method: The compounds of the present invention were also evaluated for their ability to affect the replication of Hepatitis C Virus RNA in cultured hepatoma (HuH-7) cells containing a subgenomic HCV Replicon. The details of the assay are described below. This Replicon assay is a modification of that described in V. Lohmann, F. Korner, J-O. Koch, U. Herian, L. Theilmann, and R. Bartenschlager, “Replication of a Sub-genomic Hepatitis C Virus RNAs in a Hepatoma Cell Line,” Science 285:110 (1999).
The assay was an in situ Ribonuclease protection, Scintillation Proximity based-plate assay (SPA). 10,000-40,000 cells were plated in 100-200 μL of media containing 0.8 mg/mL G418 in 96-well cytostar plates (Amersham). Compounds were added to cells at various concentrations up to 100 μM in 1% DMSO at time 0 to 18 h and then cultured for 24-96 h. Cells were fixed (20 min, 10% formalin), permeabilized (20 min, 0.25% Triton X-100/PBS) and hybridized (overnight, 50° C.) with a single-stranded ^33P RNA probe complementary to the (+) strand NS5B (or other genes) contained in the RNA viral genome. Cells were washed, treated with RNAse, washed, heated to 65° C. and counted in a Top-Count Inhibition of replication was read as a decrease in counts per minute (cpm).
Human HuH-7 hepatoma cells, which were selected to contain a subgenomic replicon, carry a cytoplasmic RNA consisting of an HCV 5′ non-translated region (NTR), a neomycin selectable marker, an EMCV IRES (internal ribosome entry site), and HCV non-structural proteins NS3 through NS5B, followed by the 3′ NTR.

Structure (SMILES)	CC50 [1] [µM]	EC50 [2] [µM]
[N-]=[N+]=N[C@]1(CO)O[C@@H](n2ccc3c(N)ncnc32)[C@@H](F)[C@@H]1O [Example 1, 7-(4-azido-2-deoxy-2-fluoro-β-D-arabinofuranosyl)-7H-pyrrolo[2,3-d]pyrimidin-4-amine]	> 100	< 20
[N-]=[N+]=N[C@]1(CO)O[C@@H](n2cc(F)c3c(N)ncnc32)[C@@H](F)[C@@H]1O [Example 2, 7-(4-azido-2-deoxy-2-fluoro-β-D-arabinofuranosyl)-5-fluoro-7H-pyrrolo[2,3-d]pyrimidin-4-amine]	> 100	20 to 100
[N-]=[N+]=N[C@]1(CO)OC(n2cnc3c(N)ncnc32)[C@@H](F)[C@@H]1O (stereo partly drawn) [Example 3, 9-(4-azido-2-deoxy-2-fluoro-b-D-arabinofuranosyl)-9H-purin-6-amine]	> 100	> 100

From US20120010164A1, “ANTIVIRAL AGENTS” (priority 2009, published 2012)
